In PubChem BioAssay AID179 (DTP/NCI, 2004):
Activity calls are given as the source filed them.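 Rule for the calls: active = compounds giving half or more protection of infected cells from virus-caused growth loss, again on retest; inactive = the rest.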 Where a SMILES comes first, the peptide text is derived from it. The star is where a group is joined. OSu = O=C1CCC(=O)N1O*

Test system: CEM cells HIV-1 protection, formazan growth assay
Assay: NCI AIDS Antiviral Assay
Details: for IC50: measured here: growth of uninfected CEM cells
How it was run: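 Soluble formazan readout of cell growth; CEM cells ± HIV-1; 5 drug concs. ≥50% protection → retest; ≥50% again = moderately active; reproducible 100% = confirmed active.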

Compound | EC50 [µM] | IC50 [µM] | outcome
COc1ccc2c(c1)OC[C@@H]1c3cc(O)c(OCc4ccccc4)cc3O[C@]21C | > 200 | 24 | 
CC(C)CCCCCCCCCCCCC(=O)NCC(=O)NC1C(O)C(O)C(Nc2ncnc3nc[nH]c23)OC1C(O)CO (stereo not given) | > 0.417 | 0.00224 | 
O=C(O)c1ccc(C2=Cc3cc(Cl)ccc3OC2)cc1 | > 66.1 | > 66.1 | 
CCOC(=O)C(NC(=O)CC)(N1CCN(c2cc3c(cc2F)c(=O)c(C(=O)O)cn3C2CC2)CC1)C(F)(F)F (stereo not given) | > 200 | 126 | 
CN1CCN(c2nc3cc(F)ccc3n3cccc23)CC1 | > 200 | 27.5 | 
COc1ccc2cc1Oc1ccc(cc1)C[C@H]1c3cc(c(OC)cc3CCN1C)Oc1c(O)c(OC)cc3c1[C@H](C2)N(C)CC3 |  |  | inactive
CC(=O)NC(CCCNC(=O)N(C)N=O)C(=O)NCc1ccccc1 (stereo not given) | > 708 | > 708 | 
N=C(N)N1CCC(N2CCOCC2)CC1 | > 200 | > 200 | 
Clc1ccc(CN2COc3c(ccc4cccnc34)C2)cc1 | > 200 | 1.82 | 
O=C1/C(=C/c2cccc(F)c2)CCc2ccccc21 | > 14.8 | > 14.8 | 
CN1C(C)(c2ccccc2)c2ccccc2S1(=O)=O (stereo not given) | 3.89 | 85.1 | 
N=c1oc2cc(O)c(O)cc2cc1C(N)=O | > 8.32 | 7.41 | 
CC(=O)c1c(O)ccc2c1CC(CC=O)O2 (stereo not given) | > 589 | 22.9 | 
Cc1ccc(NC(=O)c2cc(S(=O)(=O)N3CCNNC3=O)c(S)cc2Cl)cc1 | 30.2 | 195 | 
O=C(O)C(=C/C=C/c1ccccc1)C(=O)O |  |  | inactive
O=C1OC(CN2CCN(c3ccccc3)CC2)CN1C(=S)Nc1ccccc1 (stereo not given) | > 200 | 115 | 
CCC1C(C)c2c([nH]c3ccccc23)C2C(=O)N(c3ccccc3)C(=O)C21 (stereo not given) |  |  | inactive
O=[N+]([O-])c1cc(S(=O)(=O)c2ccc(N(CCO)CCO)c([N+](=O)[O-])c2)ccc1N(CCO)CCO | > 200 | 35.5 | 
CCOC(=O)C(/C=N/C(=S)Nc1ccc(S(=O)(=O)Nc2ccccn2)cc1)=C(/O)c1ccccc1 | > 200 | 135 | 
[N-]=[N+]=N[C@H]1C[C@@H](CO)O[C@H]1n1cnc2c(N)ncnc21 |  |  | inactive
CC1=NN(c2ccc(S(=O)(=O)O)cc2)/C(=N/NC(N)=S)C1 | > 759 | 427 | 

Compound | EC50 [µM] | IC50 [µM] | outcome
[Cl][Tb]([Cl])[Cl] |  |  | inactive
Cc1cc(Sc2cc(C)c(O)c(C(C)(C)C)c2)cc(C(C)(C)C)c1O | > 200 | 15.8 | 
CC1OC(n2cc(F)c(=O)[nH]c2=O)CCC1O (stereo not given) | > 1020 | > 200 | 
CCOC(=O)C(=O)Nc1ccc(Cl)cc1C | > 389 | 331 | 
[N-]=[N+]=NCC(O)Cn1cnc2c(NC(=O)c3ccccc3)ncnc21 (stereo not given) | > 741 | 427 | 
CCC(C)CC(C)CC(C)/C=C(\C)C1=C(C)CC(C)(O)O1 (stereo not given) |  |  | inactive
CO/C=C1\CCC2c3c(c4ccccc4n3C)CC1N2Cc1ccccc1 (stereo not given) | > 14.5 | 8.13 | 
CCN(CC)CCNc1ccc([N+](=O)[O-])c2nc3ccc(OC)cc3c(N)c12 | > 200 | 0.331 | 
Cn1c2ccccc2c2nc3ccccc3c(Cl)c21 | > 200 | 135 | 
CC(C)CCC[C@@H](C)C1CCC2C3CCC4C[C@@H](CCC=C(c5cc(F)c(O)c(C(=O)O)c5)c5cc(F)c(O)c(C(=O)O)c5)CC[C@]4(C)C3CC[C@@]21C (stereo not given in full) | 21.9 | > 200 | 
CC(C)(C)CNC(=O)NCn1cc(-c2ccccc2)nn1 | > 200 | > 200 | 
CCCC(=O)[O-].N.N.N.N.N.[Co+3].[O-][Cl+3]([O-])([O-])[O-] |  |  | inactive
O=c1[nH]c2cc([N+](=O)[O-])ccc2nc1/C=C(\O)c1ccc(Cl)cc1 | > 100 | 87.1 | 
CCOC(=O)c1ccc(NC(=O)O/N=C(/Cl)CCl)cc1 | > 200 | 18.6 | 
COc1cc2c(cc1O)-c1[nH]ncc1CCC2 | > 43.7 | > 43.7 | 
NC(N)=NNCCOc1c(Cl)cccc1Cl | > 200 | 91.2 | 
NC(=O)c1nnc2ccc(F)cc2c1N | > 200 | 70.8 | 
NC(=O)CNC(=O)c1ccc([As](=O)(O)O)cc1 | > 200 | > 200 | 
CCCN1C(=O)CNC(=O)c2[nH]cnc21 |  |  | inactive
Cc1cc(=O)c2c(o1)-c1c(cc(O)c(O)c1C(=O)O)OC2 | > 871 | 57.5 | 
Cc1cccc2c(=O)c3ccccc3oc12 | > 170 | > 170 | 

Compound | EC50 [µM] | IC50 [µM] | outcome
NNC(=O)CCC(=O)NC1C2CC3CC(C2)CC1C3 (stereo not given) | > 676 | > 676 | 
C[C@H]1CN[C@@H]2[C@@H](C)[C@H]3[C@@H](C[C@H]4[C@@H]5CC[C@H]6C[C@@H](N)CC[C@]6(C)[C@H]5CC[C@]34C)O[C@@]2(O)C1 | > 38 | 1.74 | 
O=[N+]([O-])c1ccc(CS(=O)(=O)c2ccccc2)cc1 |  |  | inactive
O=c1c2ccccc2c2nccn2c2ccccc12 | 182 | > 200 | 
NCCCCC(NC(=O)C(N)Cc1ccc(O)cc1)C(=O)NC(Cc1ccc(O)cc1)C(=O)NC(CCCCN)C(=O)ON1C(=O)CCC1=O (stereo not given) (H-YKYK-OSu; configuration not given here) | > 200 | > 200 | 
Cc1ccc(S(=O)(=O)N2CCCSCCN(S(=O)(=O)c3ccc(C)cc3)CCCSCC2)cc1 | > 34.7 | > 34.7 | 
Cn1c(=O)ccc2ccc(N(CCO)CCO)nc21 | > 200 | > 200 | 
CCCCCCCCCCCCCCC(F)C(=O)OCC1OC(CO)(OC2OC(CO)C(O)C(O)C2O)C(O)C1O (stereo not given) | > 200 | 95.5 | 
CCCc1cc(=O)oc2c3c(c4c(c12)OC(C)(C)C=C4)O[C@H](C)[C@@H](C)[C@H]3O | > 58.9 | 17.8 | 
NNC(=O)CC(=O)Nc1ccc(S(=O)(=O)c2ccc(NC(=O)CC(=O)NN)cc2)cc1 | > 200 | > 200 | 
COc1cc2c(cc1O)[C@H](C)C(c1ccccc1OC)O2 (stereo not given in full) | > 66.1 | 3.98 | 
CCc1n[nH]c(=O)n1/N=C/c1ccccc1O | > 200 | > 200 | 
COc1cccc(/C=C/c2nccc3ccccc23)c1OC | > 200 | 12.9 | 
O=C1CCC2(c3ccccc3)Nc3ccc(Cl)cc3N12 (stereo not given) |  |  | inactive
Cn1nc(-c2ccccc2)c2c(-c3ccccc3)c3cc(Cl)ccc3nc21 | > 100 | > 100 | 
C[N+]12CCCCC1C(CN1C(=O)c3ccccc3C1=O)CCC2 (stereo not given) | 58.9 | > 200 | 
CC(O)CNC(=O)C(C)Oc1ccc(OCC2CCCCC2)cc1 (stereo not given) | > 282 | 25.1 | 
N#CC1=C(N)C(C#N)(C#N)C2(CCCC2)C2CCC=C12 (stereo not given) |  |  | inactive
Cn1c2c(c3ccccc31)CCN1OCC=C[C@@H](C(=O)O)[C@@H]21 | > 200 | > 200 | 
CC(=O)C(SSC(C(C)=O)C(C)=O)C(C)=O | > 200 | 8.51 | 
C[C@H](CCCN1CCN(C)CC1)[C@H]1CC[C@H]2[C@@H]3CC[C@@H]4C[C@H](O)CC[C@]4(C)[C@H]3CC[C@]12C | > 50.1 | 3.09 | 
